Target: M. tb PII (GlnB) (Mycobacterium tuberculosis, UniProt P9WN31)
Sequence (P9WQ65 417-477): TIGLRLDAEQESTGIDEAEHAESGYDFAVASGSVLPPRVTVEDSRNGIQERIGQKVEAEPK
Sequence (P9WN31 whole entry): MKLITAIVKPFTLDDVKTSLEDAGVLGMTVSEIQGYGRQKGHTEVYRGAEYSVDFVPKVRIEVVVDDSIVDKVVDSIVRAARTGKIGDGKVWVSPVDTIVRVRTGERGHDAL

Structure (SMILES): O=C(O)CCC(=O)C(=O)O [2-oxoglutarate]
- Ni-NTA pull-down of AmtCTR by His-PII, SDS-PAGE: PII is able to interact with AmtCTR being negatively modulated by 2-OG

Reference: paper PMC11001197, “The PII protein interacts with the Amt ammonium transport and modulates nitrate/nitrite assimilation in mycobacteria” (Frontiers in Microbiology, 2024)
